Reference: patent publication US11654138B2, “Therapeutic agents for treating and preventing autoimmune diseases and cancer and a screening method” (KING FAISAL UNIVERSITY, priority 2019, dated 2023)

Legend:
[1] = test system: differentiated Th17 cells; experiment: Th17 differentiation of naïve CD4+CD62L+ T cells; assay type: cell-based, mice; conditions: 40 μM, 72 h
Protocol: The peritoneal macrophages were stimulated in vitro with 0.5 μg/mL lipopolysaccharides (LPS) (Sigma-Aldrich) for 24 h. The CD4^+ CD62L^+ T cells were isolated and purified from spleen using the MACS isolation kit (Miltenyi). The T cells were cultured in the presence of anti-CD3/CD28 dynabeads (Invitrogen), recombinant mouse IL-6 (30 ng/mL; R&D Systems), recombinant transforming growth factor-β (TGF-β) (4 ng/mL; R&D Systems), anti-interferon-γ (IFN-γ) and anti-IL-4 (10 μg/mL; Biolegend) for 72 h to generate Th17 cells.
The mRNAs and cytokines were quantified as follows. A first strand of cDNA was synthesized from total RNA by using the TaqMan reverse transcription kit. The cDNA was amplified in the real-time PCR system ViiA7 using TaqMan gene expression assays of OX40 (Mm01261022_m1), Stat3 (Mm01219775_m1) and the endogenous control Gapdh (Mm99999915_g1). Kits, probes and reagents were from Applied Biosystems. The relative expression of mRNAs was calculated by ΔΔCt method. For cytokines quantification in serum and cell culture supernatants, ELISA kits of IL-17a, IL-6, TNF-α (Invitrogen) were used following the manufacturer's instructions.
Flow cytometry analysis was conducted using CD4^+ T cells cultured under Th17 cell-inducing conditions or CD4^+ T cells derived from CNS, which were fixed and stained with Per-CP-Cy5.5-conjugated anti-CD4 antibodies and PE-conjugated anti-OX40 antibodies (Biolegend). Analysis was carried out using Flowsight (Amnis).
The anti-inflammatory activity of the Arid5a inhibitor POE was tested in vitro by measuring secretion of pro-inflammatory cytokines by macrophages and differentiated Th17 cells. Briefly, peritoneal macrophages were stimulated with LPS (0.5 μg/mL) for 24 h in presence or absence of POE (40 μM). […] The percentage of CD4^+OX40^+ T cells in the polarized Th17 cells was determined using flow cytometry; the results are shown in FIG. 3D. Stat3 mRNA expression in the polarized Th17 cells was quantified by real-time PCR and normalized to Gapdh mRNA; the results are shown relative to those of untreated Th17 cells in FIG. 3E.

Arid5a = molecular target: T1, Arid5a (Mus musculus, UniProt Q3U108); experiment: Luciferase assay of Arid5a stabilizing function on 3′UTR of target mRNAs in HEK293T cells; assay type: cell-based
T1 construct: Flag; expressed in transfected cells; host or cells: HEK293T
T1 sequence (Q3U108 1-590): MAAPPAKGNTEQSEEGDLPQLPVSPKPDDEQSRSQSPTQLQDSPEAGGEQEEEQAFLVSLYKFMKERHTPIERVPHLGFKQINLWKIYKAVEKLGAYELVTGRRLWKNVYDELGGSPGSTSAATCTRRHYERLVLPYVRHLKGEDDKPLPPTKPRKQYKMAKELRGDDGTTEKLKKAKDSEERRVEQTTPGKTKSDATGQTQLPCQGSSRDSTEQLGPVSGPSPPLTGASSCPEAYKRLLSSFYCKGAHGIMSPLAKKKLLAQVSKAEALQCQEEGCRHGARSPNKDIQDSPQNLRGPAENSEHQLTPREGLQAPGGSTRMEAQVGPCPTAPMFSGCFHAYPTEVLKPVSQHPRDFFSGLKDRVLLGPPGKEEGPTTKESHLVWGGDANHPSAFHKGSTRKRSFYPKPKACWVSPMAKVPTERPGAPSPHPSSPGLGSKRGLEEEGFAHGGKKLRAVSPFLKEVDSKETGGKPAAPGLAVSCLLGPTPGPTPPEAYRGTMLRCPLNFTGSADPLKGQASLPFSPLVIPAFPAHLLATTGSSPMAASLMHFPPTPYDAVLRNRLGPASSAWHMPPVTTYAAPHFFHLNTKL
Protocol: Briefly, HEK293T cells were transfected with luciferase pGL-3 and empty pcDNA3.1 plasmids (Control), or pGL-3 plasmid encoding the 3′UTR of OX40, Il6 or Stat3, together with Arid5a-expressing pcDNA3.1 plasmid. The cells were treated with DMSO (Control and Arid5a) or POE (10-60 μM) dissolved in DMSO. The mouse Arid5a (NP_001165676.1) cDNA (WT; ENSMUST00000115032.7) was cloned in a Flag-tagged pcDNA3.1 plasmid at Xba1 and Ecor1. Renilla-expressing plasmid was used as a control. Luciferase activity from cell lysates is shown relative to Control in FIGS. 1A-1C.
HEK293 T cells (ATCC) were transfected (Lipofectamine LTX; Invitrogen) with luciferase pGL-3 and empty peDNA 3.1 plasmids (Control), or pGL-3 plasmid encoding the 3′UTR of IL6 together with Arid5a-expressing pcDNA3.1 plasmid. Renila-expressing plasmid was used as a Control. The cells were treated with DMSO (Control and Arid5a) or POE or its analogs A1-3 (40 μM; Aurora) dissolved in DMSO. The mouse Arid5a (NP_001165676.1) cDNA (WT; ENSMUST00000115032.7) was cloned in a Flag-tagged pcDNA3.1 plasmid at Xba1 and EcoR1.
To examine whether the Arid5a inhibitors interact with the target domain of Arid5a (Pocket X), substitution mutations were introduced to the wild-type (WT) Arid5a at Phe56, Tyr137 and His140 to produce mutant Arid5a (mArid5a). Mutations were introduced to substitute Phe56 with Cys, Tyr137 with Ala, and His140 with Ala. Luciferase activity from cell lysates was quantified using a Dual Luciferase kit (Promega) and the results were shown relative to the Control.

With `O=C(CSc1nnc(-c2ccncc2)o1)c1ccccc1` [POE, 1-Phenyl-2-(5-pyridin-4-yl-[1,3,4]oxadiazol-2-ylsulfanyl)-ethanone] the “Level of IL-17 in cell culture supernatant of polarized Th17 cells” value ([1]; compared to untreated Th17 cells, FIG. 3C) was “reduces the level of IL-17”, the “Frequency of CD4+OX40+ T cells in polarized Th17 cells” value ([1]; flow cytometry, FIG. 3D) was “reduces the frequency of CD4^+OX40^+ T cells” and the “Expression of Stat3 mRNA in polarized Th17 cells” value ([1]; real-time PCR normalized to Gapdh, FIG. 3E) was “reduces the expression of Stat3 mRNA”. For the same compound, the “Arid5a stabilizing function on Il6 3′UTR (luciferase activity relative to Control)” value (Arid5a; 40 μM, HEK293 T cells, WT Arid5a, FIG. 6) was “abolished the stabilizing function of Arid5a”, the “Arid5a stabilizing function on the OX40 3′UTR (luciferase activity relative to Control)” value (Arid5a; POE 10-60 μM, HEK293T cells, FIG. 1A) was “inhibits Arid5a stabilizing function” and the “Arid5a stabilizing function on the Il6 3′UTR (luciferase activity relative to Control)” value (Arid5a; POE 10-60 μM, HEK293T cells, FIG. 1B) was “inhibits Arid5a stabilizing function”. The “Arid5a stabilizing function on the Stat3 3′UTR (luciferase activity relative to Control)” value (Arid5a; POE 10-60 μM, HEK293T cells, FIG. 1C) was “inhibits Arid5a stabilizing function”.
